Laboratory results reported in US20050038125A1, “Method for the treatment of arthritis and pain” (priority 2003, published 2005).

How the values were obtained:
[1] = tested on: PGE2 production in mouse whole blood; assay: LPS stimulated PGE2 production by mouse whole blood; assay type: cell-based
Procedure: Murine blood (C57/b16 male) was collected in heparinized collection tubes. The blood was diluted 0.5 times with cell culture medium without serum. 150 μl diluted blood was transferred into a 96-well microtiterplate. Silbinol™ was dissolved in DMSO and subsequently further diluted before adding to the cells in a concentration range of 0-25-50 μg/ml. Total amount of DMSO in the well was 0.1% DMSO. After 1 hour of preincubation of the mixture of blood cells and Silbinol™ or blood cells and 100 μM Ibuprofen™ at 37° C. in a humidified atmosphere containing 5% CO2, 1 μg/ml LPS was added and incubated for another 20 hours. Plates were centrifuged (5 minutes, 1200 rpm, SorvallRT7™) and supernatants are harvested and stored at −80° C. for further analysis.
PGE2 in the thawed supernatants was determined using the commercial enzyme immunoassay of Biotrak™ (Biotrak Amersham, Buckinghamshire, UK) according to the manufacturer's protocol 2.

[2] = tested on: PGE2 production by hPBMCs; assay: PGE2 production by LPS stimulated hPBMCs (enzyme immunoassay); assay type: cell-based, human; conditions: for PGE2 production / effect on PGE2 production by hPBMCs (in words): after LPS stimulation; for IC50: Homo sapiens, read-out: estimated IC50 (PGE2 production by hPBMCs after LPS stimulation)
Procedure: Peripheral Blood Mononuclear Cells (PBMCs) isolated from buffy coats of human blood from 3 healthy donors were stored in liquid nitrogen using standard procedures. For each experiment, PBMCs were thawed, transferred into a 50 ml centrifuge tube (BD Falcon, Erembodegem Aalst, Belgium) and cell culture medium (RPNI-1640 containing 25 mM HEPES and 2 mM L-glutamine (Life-Technologies, Merelbeke, Belgium) and further enriched with 10% heat inactivated fetal calf serum (^hiFCS), 120 U/ml penicillin/streptomycin and 1.2 mM sodium pyruvate) was added in a drop-wise fashion. Subsequently cells were centrifuged for 5 minutes at 1200 rpm (Sorvall RT7™). Cells were washed with cell culture medium (two times) and counted using a coulter counter (Beckman Coulter, Fullerton, Calif., USA). Parallel, a microscopic viability check using trypan blue is performed. PBMCs were pipetted into a 96-well flat bottom microtiterplate (BD Falcon, Brembodegem Aalst, Belgium), 1.5×10^5 cells per well. Pterostilbene (Chromadex, Santa Anna, Calif., USA), Silbinol™ (Pterocarpus marsupium plant extract containing at least 5 wt. % pterostilbene based on dried weight; Sabinsa Corporation, Piscataway, USA) and resveratrol (Sigma, St. Louis, USA) were dissolved in dimethylsulfoxide (DMSO) and subsequently further diluted in cell culture medium and added to the cells in a concentration range (see below). DMSO concentration in the wells was 0.1%. Subsequently the cells were incubated for 1 hour at 37° C. in a humidified atmosphere containing 5% CO2. After 1 hour, lipopolysaccharide (LPS, E. Coli […], […]) was added and the cells were incubated for 20 hours at 37° C. in a humidified atmosphere containing 5% CO2. The supernatants were harvested 20 hours after incubation and stored at −80° C. until further analysis. Metabolic activity of the PBMCs with and without the presence of test compound was determined using the succinate dehydrogenase activity.
Concentrations of 3.12, 6.25, 12.5, 25 and 50 μg/ml of either Pterostilbene or Silbinol™ were tested to find the dose range of inhibitory activity (Table 1 and 2). Following the determination of the dose range with PGE2 production inhibitory activity, concentrations of 0, 2, 4, 8, 16 and 32 μg/ml Silbinol™ (Table 3) and 0, 0.037, 0.11, 0.33, 1 and 3 μM pterostilbene (Table 4) were tested.
For comparative purposes, the effects 0, 0.33, 1, 3, 9 and 27 μM resveratrol on PGE2 production by hPBMCs was determined (Table 5).
PGE2 in the thawed supernatants was measured using a commercial enzyme immunoassay (Biotrak Amersham, Buckinghamshire, UK) according to the manufacturer's protocol 2.

hPBMCs = assay: Metabolic activity of PBMCs (succinate dehydrogenase activity); assay type: cell-based, human; conditions: lower dose range (Table 4), compared with PGE2 inhibition
Procedure: Peripheral Blood Mononuclear Cells (PBMCs) isolated from buffy coats of human blood from 3 healthy donors were stored in liquid nitrogen using standard procedures. For each experiment, PBMCs were thawed, transferred into a 50 ml centrifuge tube (BD Falcon, Erembodegem Aalst, Belgium) and cell culture medium (RPNI-1640 containing 25 mM HEPES and 2 mM L-glutamine (Life-Technologies, Merelbeke, Belgium) and further enriched with 10% heat inactivated fetal calf serum (^hiFCS), 120 U/ml penicillin/streptomycin and 1.2 mM sodium pyruvate) was added in a drop-wise fashion. Subsequently cells were centrifuged for 5 minutes at 1200 rpm (Sorvall RT7™). Cells were washed with cell culture medium (two times) and counted using a coulter counter (Beckman Coulter, Fullerton, Calif., USA). Parallel, a microscopic viability check using trypan blue is performed. PBMCs were pipetted into a 96-well flat bottom microtiterplate (BD Falcon, Brembodegem Aalst, Belgium), 1.5×10^5 cells per well. […] Metabolic activity of the PBMCs with and without the presence of test compound was determined using the succinate dehydrogenase activity.

SMILES: CC(C)Cc1ccc(C(C)C(=O)O)cc1 (stereo not shown) [Ibuprofen]
- PGE2 production ([1]; 100 μM, LPS stimulated mouse whole blood): 1709 pg/mL
- effect on PGE2 production in mouse whole blood (in words) ([1]; LPS stimulated): inhibit PGE2 production

SMILES: COc1cc(C=Cc2ccc(O)cc2)cc(OC)c1 [Pterostilbene, 4′-hydroxy-3,5-dimethoxystilbene]
- PGE2 production ([2]; 0.037 μM, Mean of donors A-C): 5434 pg/mL
- PGE2 production ([2]; 0.037 μM, donor A): 5957 pg/mL
- PGE2 production ([2]; 0.037 μM, donor B): 7788 pg/mL
- PGE2 production ([2]; 0.037 μM, donor C): 2574 pg/mL
- PGE2 production ([2]; 0.11 μM, Mean of donors A-C): 4494 pg/mL
- PGE2 production ([2]; 0.11 μM, donor A): 5305 pg/mL
- PGE2 production ([2]; 0.11 μM, donor B): 6930 pg/mL
- PGE2 production ([2]; 0.11 μM, donor C): 1248 pg/mL
- PGE2 production ([2]; 0.33 μM, Mean of donors A-C): 2589 pg/mL
- PGE2 production ([2]; 0.33 μM, donor A): 2786 pg/mL
- PGE2 production ([2]; 0.33 μM, donor B): 4782 pg/mL
- PGE2 production ([2]; 0.33 μM, donor C): 199 pg/mL
- PGE2 production ([2]; 1 μM, Mean of donors A-C): 1879 pg/mL
- PGE2 production ([2]; 1 μM, donor A): 2067 pg/mL
- PGE2 production ([2]; 1 μM, donor B): 3570 pg/mL
- PGE2 production ([2]; 3 μM, Mean of donors A-C): 691 pg/mL
- PGE2 production ([2]; 3 μM, donor A): 280 pg/mL
- PGE2 production ([2]; 3 μM, donor B): 1794 pg/mL
- PGE2 production ([2]; 3.12 μg/ml, Mean of donors A-C): 39 pg/mL
- PGE2 production ([2]; 3.12 μg/ml, donor B): 117 pg/mL
- PGE2 production ([2]; 6.25 μg/ml, Mean of donors A-C): 9 pg/mL
- PGE2 production ([2]; 6.25 μg/ml, donor A): 28 pg/mL
- PGE2 production ([2]; 12.5 μg/ml, Mean of donors A-C): 2 pg/mL
- PGE2 production ([2]; 12.5 μg/ml, donor B): 5 pg/mL
- PGE2 production ([2]; 25 μg/ml, Mean of donors A-C): 44 pg/mL
- PGE2 production ([2]; 25 μg/ml, donor A): 63 pg/mL
- PGE2 production ([2]; 25 μg/ml, donor B): 69 pg/mL
- PGE2 production ([2]; 50 μg/ml, Mean of donors A-C): 269 pg/mL
- PGE2 production ([2]; 50 μg/ml, donor A): 584 pg/mL
- PGE2 production ([2]; 50 μg/ml, donor B): 222 pg/mL
- IC50 [2]: 0.83 µM
- effect on PGE2 production by hPBMCs (in words) [2]: inhibit PGE2 production
- metabolic activity of hPBMCs (hPBMCs): decrease, however to a much lesser extent

SMILES: Oc1ccc(C=Cc2cc(O)cc(O)c2)cc1 [Resveratrol, resveratrol, reference compound]
- IC50 [2]: 4.7 µM
- PGE2 production ([2]; Table 5, 0.33 μM, Mean of donors A-C): 6717 pg/mL
- PGE2 production ([2]; Table 5, 0.33 μM, donor A): 8380 pg/mL
- PGE2 production ([2]; Table 5, 0.33 μM, donor B): 8060 pg/mL
- PGE2 production ([2]; Table 5, 0.33 μM, donor C): 3710 pg/mL
- PGE2 production ([2]; Table 5, 1 μM, Mean of donors A-C): 5601 pg/mL
- PGE2 production ([2]; Table 5, 1 μM, donor A): 6835 pg/mL
- PGE2 production ([2]; Table 5, 1 μM, donor B): 7369 pg/mL
- PGE2 production ([2]; Table 5, 1 μM, donor C): 2597 pg/mL
- PGE2 production ([2]; Table 5, 3 μM, Mean of donors A-C): 2916 pg/mL
- PGE2 production ([2]; Table 5, 3 μM, donor A): 3120 pg/mL
- PGE2 production ([2]; Table 5, 3 μM, donor B): 5449 pg/mL
- PGE2 production ([2]; Table 5, 3 μM, donor C): 178 pg/mL
- PGE2 production ([2]; Table 5, 9 μM, Mean of donors A-C): 1383 pg/mL
- PGE2 production ([2]; Table 5, 9 μM, donor A): 1213 pg/mL
- PGE2 production ([2]; Table 5, 9 μM, donor B): 2936 pg/mL
- PGE2 production ([2]; Table 5, 27 μM, Mean of donors A-C): 1090 pg/mL
- PGE2 production ([2]; Table 5, 27 μM, donor A): 913 pg/mL
- PGE2 production ([2]; Table 5, 27 μM, donor B): 2355 pg/mL
- effect on PGE2 production by hPBMCs (in words) [2]: inhibit PGE2 production
